Measured values: ChEMBL document CHEMBL5329212, “In situ click chemistry-based discovery of 1,2,3-triazole-derived diarylpyrimidines as novel HIV-1 NNRTIs by exploiting the tolerant region I in binding pocket” (Bioorg Med Chem, 2023)

Experiments:
[1] = target: Human immunodeficiency virus type 1 reverse transcriptase (Human immunodeficiency virus 1) (UniProt Q72547); test: Inhibition of HIV-1 reverse transcriptase at 0.267 uM incubated for 1 hrs in presence of biotin-labeled dNTPs by ELISA assay relative to control
[2] = Cytotoxicity against human MT4 cells assessed as reduction in cell viability measured after 5 days by MTT assay; assay type: toxicity, cell-based; details: time 5 day
[3] = tested on: Human immunodeficiency virus 1; test: Antiviral activity against HIV-1 harboring RT K103N mutant infected in human MT4 cells assessed as protection against virus-induced cytopathic effect measured after 5 days by MTT assay; assay type: functional, organism-based; details: Human immunodeficiency virus 1, MT4, 120 h
[4] = tested on: Human immunodeficiency virus 1; test: Antiviral activity against HIV-1 harboring RT F227L/V106A double mutant infected in human MT4 cells assessed as protection against virus-induced cytopathic effect measured after 5 days by MTT assay; assay type: functional, organism-based; details: Human immunodeficiency virus 1, MT4, 120 h
[5] = tested on: Human immunodeficiency virus 1; test: Antiviral activity against HIV-1 harboring RT E138K mutant infected in human MT4 cells assessed as protection against virus-induced cytopathic effect measured after 5 days by MTT assay; assay type: functional, organism-based; details: Human immunodeficiency virus 1, MT4, 120 h
[6] = tested on: Human immunodeficiency virus 1; test: Antiviral activity against HIV-1 harboring RT L100I mutant infected in human MT4 cells assessed as protection against virus-induced cytopathic effect measured after 5 days by MTT assay; assay type: functional, organism-based; details: Human immunodeficiency virus 1, MT4, 120 h
[7] = tested on: Human immunodeficiency virus 1; test: Antiviral activity against HIV-1 harboring RT RES056 mutant infected in human MT4 cells assessed as protection against virus-induced cytopathic effect measured after 5 days by MTT assay; assay type: functional, organism-based; details: Human immunodeficiency virus 1, MT4, 120 h
[8] = tested on: Human immunodeficiency virus 1; test: Antiviral activity against HIV-1 harboring RT Y188L mutant infected in human MT4 cells assessed as protection against virus-induced cytopathic effect measured after 5 days by MTT assay; assay type: functional, organism-based; details: Human immunodeficiency virus 1, MT4, 120 h
[9] = tested on: Human immunodeficiency virus 1; test: Antiviral activity against wild type HIV-1 IIIB infected in human MT4 cells assessed as protection against virus-induced cytopathic effect measured after 5 days by MTT assay; assay type: functional, organism-based; details: Human immunodeficiency virus 1, IIIB, MT4, 120 h
[10] = tested on: Human immunodeficiency virus 1; test: Antiviral activity against HIV-1 harboring RT Y181C mutant infected in human MT4 cells assessed as protection against virus-induced cytopathic effect measured after 5 days by MTT assay; assay type: functional, organism-based; details: Human immunodeficiency virus 1, MT4, 120 h

## Cc1ccc(Cn2cc(-c3ccc(Nc4nc(Oc5c(C)cc(C#N)cc5C)c5sccc5n4)cc3)nn2)cc1
[1]
  inhibition: 3.5%

## Cc1cc(C#N)cc(C)c1Oc1nc(Nc2ccc(C#N)cc2)nc(N)c1Br [ETRAVIRINE]
[2]
  CC50 at 120 h: > 461 µM
[3]
  EC50: 0.004 µM
[4]
  EC50: 0.03 µM
[5]
  EC50: 0.02 µM
[6]
  EC50: 0.01 µM
[1]
  inhibition: 56.4%
[7]
  EC50: 0.07 µM

## Cc1cc(C#N)cc(C)c1Oc1nc(Nc2ccc(-c3cn(-c4cc5ccccc5s4)nn3)cc2)nc2ccsc12
[1]
  inhibition: 0.1%

## Cc1cc(C)c(-n2cc(-c3ccc(Nc4nc(Oc5c(C)cc(C#N)cc5C)c5sccc5n4)cc3)nn2)c(C)c1
[1]
  inhibition: 4.9%

## Cc1cc(C#N)cc(C)c1Oc1nc(Nc2ccc(-c3cn(-c4ccc(C(=O)O)cc4)nn3)cc2)nc2ccsc12
[1]
  inhibition: 38.2%

## Cc1cc(C#N)cc(C)c1Oc1nc(Nc2ccc(-c3cn(Cc4ccc([N+](=O)[O-])cc4)nn3)cc2)nc2ccsc12
[1]
  inhibition: 1.6%

## Cc1cc(C#N)cc(C)c1Oc1nc(Nc2ccc(-c3cn(-c4ccc(C(C)(C)C)cc4)nn3)cc2)nc2ccsc12
[1]
  inhibition: 23.9%

## Cc1cc(C#N)cc(C)c1Oc1nc(Nc2ccc(-c3cn(Cc4cccc5ccccc45)nn3)cc2)nc2ccsc12
[1]
  inhibition: 35.9%

## Cc1cc(C#N)cc(C)c1Oc1nc(Nc2ccc(-c3cn(CC(=O)NC4CC4)nn3)cc2)nc2ccsc12
[1]
  inhibition: 29.7%

## Cc1ccnc2c1NC(=O)c1cccnc1N2C1CC1 [NEVIRAPINE]
[2]
  CC50 at 120 h: > 951 µM
[8]
  EC50: > 951 µM
[9]
  EC50: 0.1 µM
[3]
  EC50: 4.93 µM
[4]
  EC50: > 951 µM
[5]
  EC50: 0.13 µM
[6]
  EC50: 1.45 µM
[10]
  EC50: 5.66 µM
[7]
  EC50: > 951 µM

## COc1ccc(-n2cc(-c3ccc(Nc4nc(Oc5c(C)cc(C#N)cc5C)c5sccc5n4)cc3)nn2)cc1
[1]
  inhibition: 28%

## Cc1cc(C#N)cc(C)c1Oc1nc(Nc2ccc(-c3cn(CC(=O)Nc4ccc(Br)cc4)nn3)cc2)nc2ccsc12
[1]
  inhibition: 4.1%

## Cc1cc(C#N)cc(C)c1Oc1nc(Nc2ccc(-c3cn(CC(=O)N4CCOCC4)nn3)cc2)nc2ccsc12
[1]
  inhibition: 21.8%

## Cc1cc(C#N)cc(C)c1Oc1nc(Nc2ccc(-c3cn(CS(=O)(=O)c4ccccc4)nn3)cc2)nc2ccsc12
[1]
  inhibition: 25.6%

## Cc1cc(C#N)cc(C)c1Oc1nc(Nc2ccc(-c3cn(-c4cnc5ccccc5c4)nn3)cc2)nc2ccsc12
[1]
  inhibition: 20%

## Cc1cn([C@H]2C[C@H](N=[N+]=[N-])[C@@H](CO)O2)c(=O)[nH]c1=O [ZIDOVUDINE]
[2]
  CC50 at 120 h: > 749 µM
[8]
  EC50: 0.03 µM
[9]
  EC50: 0.03 µM
[3]
  EC50: 0.03 µM
[4]
  EC50: 0.02 µM
[5]
  EC50: 0.04 µM
[10]
  EC50: 0.03 µM
[7]
  EC50: 0.03 µM

## O=C1Nc2ccc(Cl)cc2[C@@](C#CC2CC2)(C(F)(F)F)O1 [EFAVIRENZ]
[2]
  CC50 at 120 h: > 635 µM
[8]
  EC50: 0.43 µM
[3]
  EC50: 0.13 µM
[4]
  EC50: 0.5 µM
[6]
  EC50: 0.08 µM
[10]
  EC50: 0.008 µM
[7]
  EC50: 0.43 µM

## Cc1cccc(Cn2cc(-c3ccc(Nc4nc(Oc5c(C)cc(C#N)cc5C)c5sccc5n4)cc3)nn2)c1
[1]
  inhibition: 21%

## Cc1cc(C#N)cc(C)c1Oc1nc(Nc2ccc(-c3cn(CSc4ccccc4)nn3)cc2)nc2ccsc12
[1]
  inhibition: 31.9%

## Cc1cc(C#N)cc(C)c1Oc1nc(Nc2ccc(-c3cn(Cc4cccc(C#N)c4)nn3)cc2)nc2ccsc12
[1]
  inhibition: 24.7%

## Cc1cc(C#N)cc(C)c1Oc1nc(Nc2ccc(-c3cn(Cc4ccccc4[N+](=O)[O-])nn3)cc2)nc2ccsc12
[1]
  inhibition: 24.8%

## Cc1cc(C#N)cc(C)c1Oc1nc(Nc2ccc(-c3cn([C@H]4C[C@@H](n5cc(C)c(=O)[nH]c5=O)O[C@@H]4CO)nn3)cc2)nc2ccsc12
[1]
  inhibition: 24.8%

## COc1ccccc1Cn1cc(-c2ccc(Nc3nc(Oc4c(C)cc(C#N)cc4C)c4sccc4n3)cc2)nn1
[1]
  inhibition: 3.7%

## Cc1cc(C#N)cc(C)c1Oc1nc(Nc2ccc(-c3cn(Cc4ccccc4C#N)nn3)cc2)nc2ccsc12
[1]
  inhibition: 0.2%
